Experimental data from US7070796B1 (Debiopharm S.A., priority 1999, dated 2006).

Legend:
[1] = Solvent optimization above 10 mg/ml, visual observation, with temperature variations; assay type: physicochemical; details: for visual aspect of mixture: aqueous, ad 25 ml
Method: First it has been carried to 60° C. and maintained at this temperature under agitation during one hour. […] It was then submitted to three successive freezing with, in the interval, return to the room temperature. This solution has then staid seven days in a fridge.

Staphylococcus aureus = test: Efficacy of the antimicrobial conservation (European Pharmacopea 5.1.3); assay type: cell-based; details: oxaliplatinum in solution, test of artificial contamination recommended by the Pharmacopea
Method: Under these conditions, the obtained results have shown a definite reduction of the staphylococcus aureus population with a Δlog of 5,99 after 24 hours.

[2] = aqueous medium
Excerpt: Some of these tests will appear in the examples as comparatives.

Compound	visual aspect of mixture ([1]; 400 mg oxaliplatinum and 12,5 g maltitol)	visual aspect of solution ([1]; 337,5 mg oxaliplatinum and 5 g maltitol ad 25 ml, 60° C. under agitation during one hour)	crystal formation ([1]; 337,5 mg oxaliplatinum and 5 g maltitol ad 25 ml, three successive freezing, then seven days in a fridge, return to room temperature)	visual aspect of mixture ([1]; 337,5 mg oxaliplatinum and 5 g maltitol)	dissolution in words ([1]; 379,7 mg oxaliplatinum in 25 ml glycerol to 85%)	antimicrobial efficacy in words (Staphylococcus aureus)	effect of the substance, mixed with or solubilised in water, on oxaliplatinum solubility [2]
N[C@@H]1CCCC[C@H]1N.O=C([O-])C(=O)[O-].[Pt+2] [oxaliplatinum]	residues appear	clear and colorless	no crystal has been observed	clear	partly dissolve	antimicrobial efficacy	–
Tween 20	–	–	–	–	–	–	ineffective
